Data from PubChem BioAssay AID1963421 (Molecular Pharmacology Branch, DTP, NCI, 2024).
“And” between values parts separate entries of the source, which are not always exact repeats. Equal values may be shown once. One block for each compound: values may come before it.

System: 519858-162-T-J1-PDC complex spheroid growth, % test/control
Experiment: Anticancer human tumor 519858-162-T-J1-PDC patient-derived colon adenocarcinoma cell line growth inhibition [Asc]
Conditions: for viability, T/C: stronger effect = lower value
Method in brief: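 Complex solid-tumor spheroids incorporating human endothelial and mesenchymal stem cells received single agents or combinations over half-log dilution ranges anchored to clinical Cmax.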
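Note: seven day drug exposure begun three days after spheroid seeding.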
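Throughout, for viability, T/C: 100% = DMSO vehicle wells and lower values mean less viable spheroid.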

IC50 (curve of first compound, second compound 0.00949 µM): 0.578 µM | IC50 (curve of first compound, second compound 0.03 µM): > 3 µM | IC50 (curve of first compound, second compound 0.0949 µM): > 3 µM | IC50 (curve of first compound, second compound 0.3 µM): > 3 µM | IC50 (curve of first compound, second compound 0.949 µM): > 3 µM | IC50 (curve of first compound, second compound 3 µM): > 3 µM
SMILES: Cc1nc(N2CCC3(CC2)COC(C)C3N)c(CO)nc1Sc1ccnc(N)c1Cl (centres undefined) + CCN1C(C(=O)NC23CCC(C(=O)O)(CC2)CC3)C(c2cccc(Cl)c2F)C2(C(=O)Nc3cc(Cl)ccc32)C12CCCCC2
viability, T/C (second compound 0.00949 µM, first compound 0.00949 µM): 87% | viability, T/C (second compound 0.00949 µM, first compound 0.03 µM): 91.7% | viability, T/C (second compound 0.00949 µM, first compound 0.0949 µM): 111% | viability, T/C (second compound 0.00949 µM, first compound 0.3 µM): 57.3% | viability, T/C (second compound 0.00949 µM, first compound 0.949 µM): 43.6% | viability, T/C (second compound 0.00949 µM, first compound 3 µM): 45.3% | viability, T/C (second compound 0.03 µM, first compound 0.00949 µM): 85.3% | viability, T/C (second compound 0.03 µM, first compound 0.03 µM): 67% | viability, T/C (second compound 0.03 µM, first compound 0.0949 µM): 101% | viability, T/C (second compound 0.03 µM, first compound 0.3 µM): 85.6% | viability, T/C (second compound 0.03 µM, first compound 0.949 µM): 96% | viability, T/C (second compound 0.03 µM, first compound 3 µM): 63.3% | viability, T/C (second compound 0.0949 µM, first compound 0.00949 µM): 63.2% | viability, T/C (second compound 0.0949 µM, first compound 0.03 µM): 110% | viability, T/C (second compound 0.0949 µM, first compound 0.0949 µM): 70.5% | viability, T/C (second compound 0.0949 µM, first compound 0.3 µM): 66.6% | viability, T/C (second compound 0.0949 µM, first compound 0.949 µM): 73.7% | viability, T/C (second compound 0.0949 µM, first compound 3 µM): 57.5% | viability, T/C (second compound 0.3 µM, first compound 0.00949 µM): 119% | viability, T/C (second compound 0.3 µM, first compound 0.03 µM): 71% | viability, T/C (second compound 0.3 µM, first compound 0.0949 µM): 54.5% | viability, T/C (second compound 0.3 µM, first compound 0.3 µM): 80.6% | viability, T/C (second compound 0.3 µM, first compound 0.949 µM): 47.6% | viability, T/C (second compound 0.3 µM, first compound 3 µM): 52.5% | viability, T/C (second compound 0.949 µM, first compound 0.00949 µM): 67.6% | viability, T/C (second compound 0.949 µM, first compound 0.03 µM): 66.8% | viability, T/C (second compound 0.949 µM, first compound 0.0949 µM): 83.1% | viability, T/C (second compound 0.949 µM, first compound 0.3 µM): 47.4% | viability, T/C (second compound 0.949 µM, first compound 0.949 µM): 73.5% | viability, T/C (second compound 0.949 µM, first compound 3 µM): 59.2% | viability, T/C (second compound 3 µM, first compound 0.00949 µM): 69.5% | viability, T/C (second compound 3 µM, first compound 0.03 µM): 92.5% | viability, T/C (second compound 3 µM, first compound 0.0949 µM): 77.2% | viability, T/C (second compound 3 µM, first compound 0.3 µM): 73.5% | viability, T/C (second compound 3 µM, first compound 0.949 µM): 67% | viability, T/C (second compound 3 µM, first compound 3 µM): 72.5%

IC50 (curve of compound): > 0.1 µM
SMILES: NC1CCC(NC2CC2c2ccccc2)CC1 (centres undefined)
viability, T/C (compound 0.000316 µM): 104% and 97.4% and 118% | viability, T/C (compound 0.001 µM): 95.6% and 118% and 95.5% | viability, T/C (compound 0.00316 µM): 86.1% and 99% and 95.9% | viability, T/C (compound 0.01 µM): 99.9% and 127% and 86.2% | viability, T/C (compound 0.0316 µM): 129% and 85.6% and 94.6% | viability, T/C (compound 0.1 µM): 113% and 111% and 102%
